“And” between values parts separate entries of the source, which are not always exact repeats. Equal values may be shown once.
Test: Pilot clinical trial of Lipitor-Liprimar: serum lipids in human volunteers
Type: in vivo
Parameters: TG / CH-HDL / CH, mean / TG, mean / CH-LDL, mean / CH-HDL, mean: unit not given here
Method: Ten volunteers, 5 males and 5 females, aged 45-55 years old, were selected for this pilot clinical trial. 40 mg of Lipitor-Liprimar was given orally, with food, to each patient daily for two months.
Serum samples were collected from the blood of the patients before the treatment and after two months of treatment.

[1] = Lipitor 40 mg daily, two months
[2] = individual patients, Lipitor 40 mg daily, orally, after 2 months of treatment
[3] = mean of 10 patients, Lipitor 40 mg daily, orally, after 2 months of treatment

For `CC(C)c1c(C(=O)Nc2ccccc2)c(-c2ccccc2)c(-c2ccc(F)cc2)n1CC[C@@H](O)C[C@@H](O)CC(=O)O` [Lipitor, Atorvastatin], the “total cholesterol (CH) reduction” value [1] was 17%, the “triglyceride (TG) reduction” value [1] was 22% and the CH-LDL reduction (Lipitor-Liprimar 40 mg daily, two months) was 35%. For the same compound, the CH [2] was 200 mg/dL (2×) and 140 mg/dL and 176 mg/dL and 188 mg/dL and 197 mg/dL and 170 mg/dL and 184 mg/dL and 209 mg/dL and 154 mg/dL, the CH-HDL [2] was 38 and 42 (3×) and 47 (2×) and 39 and 43 (2×) and 49 and the CH-LDL [2] was 120 mg/dL (2×) and 145 mg/dL and 110 mg/dL (2×) and 146 mg/dL and 140 mg/dL and 100 mg/dL and 130 mg/dL (2×). The TG [2] was 120 and 136 and 99 and 98 and 87 and 90 and 133 and 105 and 172 and 96, the “CH, mean” value [3] was 182 and the “CH-HDL, mean” value [3] was 43. The “CH-LDL, mean” value [3] was 100 and the “TG, mean” value [3] was 113.
